Experimental data as given in patent publication US20050265999A1, “Modulation of 5-HT2 receptors as a treatment for cardiovascular diseases” (Myogen, Inc., priority 2003, published 2005).

Columns and labels:
[1] = tested on: neonatal rat ventricular myocytes (NRVM); experiment: Affymetrix gene expression screening of NRVM; assay type: cell-based; set-up: dose or concentration left out as unconfirmed
From the text: Affymetrix screening. RNA was extracted from unstimulated NRVM and hypertrophic NRVM exposed to compound 18264 […] (Trizol Reagent, GibcoBRL). RNA samples were converted to biotin-labeled cRNA and hybridized to Rat expression arrays (Affymetrix GeneChip). Arrays were then washed, scanned and quantitated as per manufacturer's instructions.

5-HT1 = experiment: Radioligand receptor binding assay
Experimental: Receptor binding assays. Receptor binding assays were performed by MDS Pharma services. Assays included: Adenosine A1 (cat# 200510), Adenosine A2A (cat# 200610), Adenosine A3 (cat# 200720), Adrenergic alpha 1 (cat# 203500), Imidazoline 12 central (cat# 241000), Imidazoline I2 peripheral (cat# 241100), Inositol triphosphate (cat# 242500), Phorbol Ester (cat# 264500), 5-HT 2B (cat# 271700), and 5-HT 4 (cat# 272000).
• Summary of radioligand binding assays for 11 receptors. Data represent % inhibition of ligand binding in the presence of 10 μM 18264 (n=2).
• Summary of radioligand binding assays for three receptors. Data represent % inhibition of ligand binding in the presence of 10 μM 20068 (n=2).

[2] = tested on: neonatal rat ventricular myocytes (NRVM); experiment: Cell volume measurement (Coulter counter) of NRVM; assay type: cell-based; settings: NRVM stimulated with compound alone
Experimental: NRVM culture. For preparations of neonatal rat ventricular myocytes (NRVMs), hearts were removed from 10-20 newborn (1-2 days old) Sprague-Dawley rats. Isolated ventricles were pooled, minced and dispersed by three 20-min incubations at 37° C. in Ads buffer (116 mM NaCl, 20 mM HEPES, 10 mM NaH2PO4, 5.5 mM glucose, 5 mM KCl, 0.8 mM MgSO4, pH 7.4) containing collagenase Type II (65 units/ml, Worthington) and pancreatin (0.6 mg/ml, GibcoBRL). Dispersed cells were applied to a discontinuous gradient of 40.5% and 58.5% (v/v) Percoll (Amersham Biosciences), centrifuged, and myocytes collected from the interface layer. Myocyte preparations were pre-plated in Dulbecco's modified Eagle's medium (DMEM, Cellgro), supplemented with 10% (v/v) fetal bovine serum (FBS, HyClone), 4 mM L-glutamine and 1% penicillin/streptomycin for 1 hour at 37° C. to reduce fibroblast contamination, then plated at a density of 2.5×10^5 cells per well on 6-well tissue culture plates (or 10,000 cells/well on 96-well tissue culture plates) coated with a 0.2% (w/v) gelatin solution. […]
Hypertrophy and toxicity assays. Primary hypertrophy endpoints for NRVM included quantitation of: ANF secretion, total cellular protein and cell volume. ANF in media supernatants was quantitated by competitive ELISA using a monoclonal anti-ANF antibody (Biodesign) and a biotinylated ANF peptide (Phoenix Peptide). Total cellular protein was quantitated by standard Coomassie dye-binding assay; cells were lysed in protein assay reagent (BioRad) and absorbance at A595 was measured after 1 hour. […] After recovery by centrifugation, cell pellets were washed in PBS, resuspended in 10 ml IsoFlow electrolyte solution (Beckman-Coulter) and analyzed with a Z2 Coulter Particle Counter and Size Analyzer (Beckman-Coulter). Cytotoxicity was quantitated by measuring release of adenylate kinase (AK) from cultured NRVM into culture medium (ToxiLight kit, Cambrex).

[3] = tested on: MCIP1 exon 4 promoter luciferase reporter; experiment: High throughput MCIP1-luciferase reporter screen in H9c2 muscle cells; assay type: cell-based, rat; settings: screen of 20,000 compounds
From the text: A high throughput screen for small molecules that enhance MCIP1 expression in cardiac myocytes. The inventors set out to perform a high throughput screen of a combinatorial small molecule library for compounds capable of increasing MCIP1 expression in cultured H9c2 muscle cells. Toward that end, the inventors used a luciferase reporter gene controlled by the region upstream of exon 4 of the human MCIP1 gene (−874 to +30). This genomic region contains 15 NFAT binding sites and confers calcineurin responsiveness to MCIP1. Transcripts initiated from exon 4 encode a MCIP1 protein with a Mr=28 kD.

5-HT2C = target: T1, 5-HT2C (Homo sapiens, UniProt P28335); experiment: Radioligand receptor binding assay; settings: 10 μM compound, n=2
T1 sequence (P28335 33-458): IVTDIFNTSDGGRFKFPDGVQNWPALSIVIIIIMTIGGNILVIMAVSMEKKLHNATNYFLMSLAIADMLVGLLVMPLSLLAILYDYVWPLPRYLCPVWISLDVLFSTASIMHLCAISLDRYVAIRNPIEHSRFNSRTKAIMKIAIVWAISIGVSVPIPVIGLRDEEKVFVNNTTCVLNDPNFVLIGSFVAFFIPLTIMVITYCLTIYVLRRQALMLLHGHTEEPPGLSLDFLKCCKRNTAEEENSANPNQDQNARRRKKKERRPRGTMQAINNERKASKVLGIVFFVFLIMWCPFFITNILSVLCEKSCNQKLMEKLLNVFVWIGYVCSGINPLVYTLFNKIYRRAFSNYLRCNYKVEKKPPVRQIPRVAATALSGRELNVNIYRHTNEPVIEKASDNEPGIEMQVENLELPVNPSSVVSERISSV

Structure (SMILES): Cc1c(-c2ccccc2)nc2sc3c(c2c1N)CCCC3 [Compound 18264, 3-Methyl-2-phenyl-5,6,7,8-tetrahydro-benzo[4,5]thieno[2,3-b]pyridin-4-ylamine]
- -Fold upreg. of Alpha skeletal actin [1]: 2.1 fold
- -Fold upreg. of Atrial natriuretic factor [1]: 2.3 fold
- -Fold upreg. of Brain natriuretic factor [1]: 4.1 fold
- -Fold upreg. of Myosin heavy chain, embryonic [1]: 29 fold
- % Inhibition of Binding (5-HT1; 10 μM compound, n=2): −25%
- binding (in words) (5-HT1; radioligand binding, 10 μM): No significant binding
- cell volume [2]: increased
- stimulation of MCIP1-luciferase expression [3]: approximately two-fold
- inhibition at 10 µM (5-HT2C): 42%
